Consider two compounds from patent US9777266B2, “Methods for efficient, expansive, user-defined DNA mutagenesis” (THE JOHNS HOPKINS UNIVERSITY, priority 2012, dated 2017).

Assay [1] relates to cells bearing TEM-1 allele Y105N. The experiment in a line: MIC assay on Mueller Hinton agar, TEM-1 allele Y105N. The assay is classed as cell-based, E. coli. Conditions: replicates 1-3. The protocol: (§1) Selected single base mutations were re-introduced into TEM-1 by site-directed PFunkel mutagenesis on the 20 μL volume scale. The MIC for ampicillin and piperacillin of the mutants was assessed with and without 6 μg/mL tazobactam by spotting 10^4 CFU on Mueller-Hinton agar plates containing 50 μg/mL Spec, 300 μM IPTG, and √2-fold increments of either ampicillin or piperacillin. Plates were incubated at 37° C. for 12 hrs.

The subject of assay [2] is cells bearing wildtype TEM-1. Description: MIC assay on Mueller Hinton agar, cells bearing TEM-1 without mutation (allele 'none'). The assay is classed as cell-based, E. coli. The protocol: as §1
Where [3] appears, read: +tazobactam 6 μg/mL, replicates 1-3.
Where [4] appears, read: −tazobactam, replicates 1-3, 10^4 CFU/spot, 37° C. for 12 hours.

Molecules are shown by their SMILES.

Turning to `CC1(C)S[C@@H]2[C@H](NC(=O)[C@H](N)c3ccccc3)C(=O)N2[C@H]1C(=O)O` [Ampicillin, ampicillin], the MIC ampicillin in assay [1] (+tazobactam 6 μg/mL) stood at 1448 µg/mL; in assay [1] (−tazobactam) it was 5792 µg/mL; in assay [2] (setting [3]), 22.6 µg/mL; in assay [2] (setting [4]) it was 8192 µg/mL.
For the compound `CCN1CCN(C(=O)N[C@@H](C(=O)N[C@@H]2C(=O)N3[C@@H]2SC(C)(C)[C@@H]3C(=O)O)c2ccccc2)C(=O)C1=O` [Piperacillin, piperacillin], the “Piperacillin MIC” value in assay [2] (setting [3]) worked out at 1.4 µg/mL; in assay [2] (setting [4]), 2896 µg/mL.
